Test results: patent US5843941A, “Ras farnesyl transferase inhibitors” (Genentech, Inc., priority 1994, dated 1998)

How the values were obtained:
[1] = test system: farnesylated proteins F1, F2 and F3 in Met18b-2 cells; test: Inhibition of intracellular farnesylation in intact Met18b-2 cells, Triton-soluble proteins F1, F2, F3; type: cell-based, Chinese hamster
Excerpt: (§1) To study farnesylation in intact cells we used Met18b-2 cells, a line of Chinese hamster ovary (CHO) cells that takes up [3H]mevalonate efficiently (see Faust, J., and Krieger, M. J. Biol. Chem. 262, 1966 (1987)) owing to the production of a mevalonate transport protein (see Kim, C. M., Goldstein, J. L., Brown, M. S. J. Biol. Chem. 267, 23113 (1992)). The [3H]mevalonate is converted by the cells into [3H]farnesyl pyrophosphate and [3H]geranylgeranyl pyrophosphate, which are then attached to proteins (Kim, C. M., Goldstein, J. L., Brown, M. S. J. Biol. Chem. 267, 23113 (1992)). In the assay, stock cultures of Met18b-2 cells were seeded at a density of 3-105 cells per 60 mm dish in 3 ml of medium A (Dulbecco's modified Eagle medium/Ham's F12 medium (1:1, v/v) containing 100 U/ml penicillin and 100 μg/ml streptomycin) supplemented with 5% (v/v) fetal calf serum (FCS). On day 3, each monolayer was refed with 1 ml medium A supplemented with 1% FCS (dialyzed against 0.15 M NaCl). At this point the cells were treated with 100 μM compactin (see Brown, M. S., Faust, J. R., Goldstein, J. L., Kaneko, I., and Endo, A. J. Biol. Chem. 253, 1121 (1978)) which blocks the synthesis of unlabeled mevalonate within the cells. Each compound was dissolved at 25 mM in DMSO/10 mM DTT immediately before use and 10 μl of this solution added directly. After 2 hr incubation at 37° C., each monolayer received 100 μCi [3H]mevalonate (60 Ci/mmol, American Radiolabeled Chemicals, Inc.) added in 100 μl of the medium A, and the incubation continued for 4 hr. The cells were harvested by rinsing three times with 3 ml of 50 mM Tris-HCl/0.15 M NaCl (pH 7.5). 300 μl of lysis buffer (0.5X Dulbecco's phosphate-buffered saline containing 1% Triton X-100, 5 μg/ml leupeptin, 5 μg/ml pepstatin, 0.5 mM phenylmethylsulfonyl fluoride, and 0.05 U/ml aprotinin) was added to each monolayer. After incubation on ice for 5 mon, the lysates were centrifuged 30 sec in a microfuge at 12,000 g. The resulting supernatant was tranferred to a new tube, and each pellet was resuspended in 60 μl of lysis buffer. Protein concentrations were determined using the BCA protein assay reagent (Pierce) according to the manufacturer's instructions. Detergent-soluble (supernatant) and -insoluble (pellet) samples were mixed with 2X SDS sample buffer (see Laemmli, U. K. Nature 227, 680 (1970)) and heated at 95° C. for 5 min before electrophoresis. Each lane contained 90 μg protein, and was run on a 12.5% SDS-polyacrylamide gel. The gel was dried, treated with ENTENSIFY (NEN-DuPont), and exposed to Kodak XOMAT-AR film for 9 h at -80° C. to allow visualization of all prenylated proteins. Migration of [14C]methylated molecular weight standards (Amersham) were used as markers.
The results of this assay are shown in FIG. 3, using a final concentration of 250 μM for each inhibitor. […] As shown in the figure, none of the control peptides or control benzodiazepine-peptideomimetics altered the prenylation of proteins in intact cells.
Using the same cells and procedures followed above for Example 125, we measured the dose dependence upon the inhibition of farnesylation in intact cells. […] Compound 37B inhibited the famesylation of F1-3 detectably at 10 μM, and almost completely at 25 μM.
In this manner, it is possible to obtain data regarding the comparative potency of these inhibitors upon the level of intracellular farnesylation. We have chosen to report the EC90% values for these inhibitors as the concentration required for a reduction in the Triton- soluble labelling (denoted F-1, F-2, and F-3) to 90% of control cells (untreated).

[2] = test system: low molecular weight GTP binding proteins (SMG) in Met18b-2 cells; test: [3H]mevalonate labeling of low molecular weight GTP binding proteins (SMG) in Met18b-2 cells; type: cell-based, Chinese hamster
Excerpt: as §1, with “The resulting supernatant was tranferred to a new tube, and each pellet was resuspended in 60 μl of lysis buffer.” left out, “Detergent-soluble (supernatant) and -insoluble (pellet) samples were mixed with 2X SDS sample buffer (see Laemmli, U. K. Nature 227, 680 (1970)) and heated at 95° C. for 5 min before electrophoresis. Each lane contained 90 μg protein, and was run on a 12.5% SDS-polyacrylamide gel. The gel was dried, treated with ENTENSIFY (NEN-DuPont), and exposed to Kodak XOMAT-AR film for 9 h at -80° C. to allow visualization of all prenylated proteins. Migration of [14C]methylated molecular weight standards (Amersham) were used as markers.” left out

[3] = test system: MDA-7 cells; test: Growth inhibition of human tumor line MDA-7; type: cell-based; settings: MDA-7, breast, not ras transformed, read-out: % growth inhib.
Procedure: To examine the effects of farnesyltransferase inhibition on cell growth, three cell lines (ras-transformed rat-1, src-transformed rat-1, and parental rat-1 cells) were seeded (see FIG. 7) at low density and allowed to grow for 10 days in the absence or presence of increasing concentrations of BZA-5B (compound 37). See Example 128 for description of cells. On day 0, cells were plated in monolayer culture at 2×10^3 cells per well (24-well plates) in 1 ml DMEM supplemented with 10% fetal calf serum, 100 U/ml penicillin, 100 μg/ml streptomycin, 0.5 mM DTT, 0.025% DMSO, and the indicated concentration of BZA-5B (compound 37). On days 3 and 7, cells were washed and refed with the same medium. At the time indicated in FIG. 7, cells were harvested by trypsinization and counted in a Coulter counter. Panels A, C, E show the growth rate of each cell line in the absence of inhibitor. Panels B, D, F show the inhibition of growth as a function of concentration of BZA-5B at each time point. […]
To examine the effects of farnesyltransferase inhibition on the growth of human tumor cell lines, several such lines were treated with 25 μM BZA-5B (compound 37B) using a procedure similar to that described in Example 129 above. Cells were refed with fresh media at days 3 and 6 containing the inhibitor, and were harvested and counted as described above. […]

[4] = test system: Ras proteins in Met18b-2 cells; test: Incorporation of [3H]mevalonate into immunoprecipitated Ras proteins in Met18b-2 cells; type: cell-based, Chinese hamster
Procedure: In each experiment, aliquots of the Triton X-100 fraction (300 μg protein, prepared as described above) were incubated with 1 μg anti-Ras monoclonal antibody (Oncogene Sciences, Inc.) overnight at 4° C. on a rotating platform. Immune complexes were precipitated by addition of 25 μl Protein A-agarose suspension that had been pre-coated with goat anti-rat IgG (Oncogene Sciences, Inc.) according to the manufacturer's instructions. After a 30 min incubation at 4° C., the agarose beads were pelleted by centrifugation and washed 5 times with 1 ml each of wash solution (50 mM Tris-HCl, 50 mM NaCl, 0.5% (w/v) deoxycholate, 0.5% (v/v) Nonidet P-40, and 0.1% (w/v) SDS at pH 7.5). 75 μl of 1X SDS sample buffer was added and each sample heated for 5 min at 95° C. before electrophoresis as above.

Compound	labeling of Triton-soluble farnesylated proteins (F1 to F3) ([1]; 250 μM, FIG. 3)	effect on low molecular weight GTP binding proteins (SMG) ([2]; 250 μM, FIG. 3)	inhibition at 25 µM [3] [%]	IC (almost complete) ([1]; Cricetulus griseus, read-out: concentration of almost complete inhibition of farnesylation of F1-3) [µM]	minimal effective concentration ([1]; Cricetulus griseus, read-out: concentration of detectable inhibition of farnesylation of F1-3) [µM]	relative potency in intact cells ([1]; dose dependence, FIG. 4, compared with 27B and 37B)	incorporation of [3H]mevalonate into immunoprecipitated ras proteins ([4]; 50 μM, FIG. 5, lanes 7-9)	minimal effective concentration ([4]; Cricetulus griseus, FIG. 5, read-out: concentration at which inhibition of incorporation into ras proteins was readily detectable) [µM]	incorporation of radioactivity into SMG proteins ([2]; increasing concentration, FIG. 5, lanes 2-4)
CSCC[C@H](NC(=O)CN1C(=O)C(N(C)C(=O)[C@@H](N)CS)N=C(c2ccccc2)c2ccccc21)C(=O)O (single isomer, unassigned) [27B]	markedly decreased the labeling of all three Triton-soluble farnesylated proteins (F1 to F3)	little effect on the low molecular weight GTP binding proteins							
COC(=O)[C@H](CCSC)NC(=O)CN1C(=O)C(N(C)C(=O)[C@@H](N)CS)N=C(c2ccccc2)c2ccccc21 (single isomer, unassigned) [37B]			0	25	10	much more potent than the parent, compound 27B	abolished incorporation of [3H] mevalonate into immunoprecipitated ras proteins	10	did not detectably inhibit the incorporation of radioactivity into the abundant SMG proteins
